{"source": "patent US20210246109A1", "about": "“POTENT AND SELECTIVE INHIBITORS OF CYTOCHROME P450” (University of Kentucky Research Foundation, priority 2020, published 2021)", "key": {"CYP1B1 [1]": {"biological_target": "T1, CYP1B1 (Homo sapiens, UniProt Q16678)", "T1 construct": "expressed in transfected cells", "T1 sequence (Q16678 1-543)": "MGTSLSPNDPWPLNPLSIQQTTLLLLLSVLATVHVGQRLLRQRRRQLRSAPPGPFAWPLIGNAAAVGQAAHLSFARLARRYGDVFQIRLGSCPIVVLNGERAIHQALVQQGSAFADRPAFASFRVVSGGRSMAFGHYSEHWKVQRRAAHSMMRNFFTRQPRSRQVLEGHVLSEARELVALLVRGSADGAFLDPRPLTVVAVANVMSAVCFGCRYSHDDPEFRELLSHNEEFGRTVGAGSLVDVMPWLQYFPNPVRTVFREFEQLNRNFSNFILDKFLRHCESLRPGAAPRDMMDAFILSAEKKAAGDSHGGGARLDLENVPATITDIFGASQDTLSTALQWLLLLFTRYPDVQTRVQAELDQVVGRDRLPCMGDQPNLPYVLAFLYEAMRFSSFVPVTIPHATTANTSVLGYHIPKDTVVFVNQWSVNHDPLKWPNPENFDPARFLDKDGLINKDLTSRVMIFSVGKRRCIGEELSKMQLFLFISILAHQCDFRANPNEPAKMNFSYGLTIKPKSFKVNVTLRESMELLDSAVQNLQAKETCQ", "experiment": "Wash out experiment (FIG. 2B)", "assay_type": "cell-based", "excerpt": "(§1) FIG. 2A includes a dose response of 547 in EROD assay in CYP1B1 cell line (blue) vs. 1A1 cell line (black). […] 510 is a control compound that lacks a coordinating group. […] All other conditions are following CYP1B1 induction with benzo[a]pyrene. Spheroid shown in inset."}, "[2]": {"experiment": "Cytotoxicity, resazurin, 72 hours after compound addition", "assay_type": "cell-based", "details": "human, HEK cells; Table 1; 72 hours, resazurin; read-out: Cytotoxicity IC50", "procedure": "Cytotoxicity was assessed at 72 hours after compound addition using resazurin. The compounds that function as selective 1B1 inhibitors had no effect on cell health. This is an essential feature for any chemopreventative agent or molecules intended to block the detrimental action of an enzyme."}, "[3]": {"biological_target": "T2, pooled human liver microsomes (pHLMs) (Homo sapiens, UniProt P05177)", "T2 sequence (P05177 2-516)": "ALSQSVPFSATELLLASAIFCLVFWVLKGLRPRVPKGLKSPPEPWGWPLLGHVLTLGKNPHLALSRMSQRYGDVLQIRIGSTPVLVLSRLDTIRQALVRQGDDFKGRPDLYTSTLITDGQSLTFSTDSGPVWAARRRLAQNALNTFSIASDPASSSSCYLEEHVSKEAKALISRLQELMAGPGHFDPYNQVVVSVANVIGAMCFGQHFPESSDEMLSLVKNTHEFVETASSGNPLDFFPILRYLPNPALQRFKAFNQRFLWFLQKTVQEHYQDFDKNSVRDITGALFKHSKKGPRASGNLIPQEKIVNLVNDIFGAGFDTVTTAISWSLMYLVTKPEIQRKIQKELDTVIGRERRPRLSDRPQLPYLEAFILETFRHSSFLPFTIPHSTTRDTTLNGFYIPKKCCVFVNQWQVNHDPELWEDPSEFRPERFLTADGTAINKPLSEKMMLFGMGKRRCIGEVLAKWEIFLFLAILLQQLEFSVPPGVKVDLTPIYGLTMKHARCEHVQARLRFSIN", "experiment": "EROD counterscreen in pooled human liver microsomes", "assay_type": "biochemical", "details": "human, microsomes", "excerpt": "Human liver microsomes were used as a counterscreen to experimentally determine the magnitude of inhibitor selectivity."}, "CYP1B1 [4]": {"biological_target": "T1, CYP1B1", "experiment": "EROD assay in inducible CYP1B1 cell line", "assay_type": "cell-based", "procedure": "(§2) The activity of the inhibitors was assessed in a novel cell based assay generated for the purpose of this project. Enzymatic turnover of CYP1B1 was measured using the ethoxy-resorufin-O-deethylase (EROD) assay with the fluorescent substrate, resorufin ethyl ether. Cell lines were generated where the gene for CYP1B1 alone or CYP1B1 and cytochrome P450 reductase (CPR) were both under the control of an inducible promoter. A cell line was generated for counter screening where the gene for CYP1A1 was used. CYP1A1 is the closest family member to CYP1B1."}, "MCF7 tumor spheroids": {"test_system": "MCF7 tumor spheroids", "assay_type": "cell-based", "details": "547 0.5 μM with cisplatin 100 μM; CYP1B1 induced with benzo[a]pyrene", "excerpt": "510 is a control compound that lacks a coordinating group. […] All other conditions are following CYP1B1 induction with benzo[a]pyrene. Spheroid shown in inset."}, "CYP1A1": {"biological_target": "T3, CYP1A1 (Homo sapiens, UniProt P04798)", "T3 construct": "expressed in transfected cells", "T3 sequence (P04798 1-512)": "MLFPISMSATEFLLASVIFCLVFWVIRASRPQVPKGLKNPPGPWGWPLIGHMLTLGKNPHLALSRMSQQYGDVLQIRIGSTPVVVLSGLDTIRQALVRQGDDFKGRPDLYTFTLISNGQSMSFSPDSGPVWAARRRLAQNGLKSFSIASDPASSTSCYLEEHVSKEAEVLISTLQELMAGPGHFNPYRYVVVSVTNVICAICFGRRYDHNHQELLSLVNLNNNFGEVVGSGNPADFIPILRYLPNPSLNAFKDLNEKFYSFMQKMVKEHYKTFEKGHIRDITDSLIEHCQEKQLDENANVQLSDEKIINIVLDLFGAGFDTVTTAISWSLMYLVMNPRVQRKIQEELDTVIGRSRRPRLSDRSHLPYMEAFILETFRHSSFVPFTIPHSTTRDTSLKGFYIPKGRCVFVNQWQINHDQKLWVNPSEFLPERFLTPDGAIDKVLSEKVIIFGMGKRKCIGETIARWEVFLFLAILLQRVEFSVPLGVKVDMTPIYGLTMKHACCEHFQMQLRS", "experiment": "EROD assay in CYP1A1 counter-screen cell line", "assay_type": "cell-based", "procedure": "as §2"}, "CYP1B1 [5]": {"biological_target": "T1, CYP1B1", "experiment": "CYP1B1 degradation on binding (FIG. 2C)", "assay_type": "cell-based", "details": "0.1 μM", "excerpt": "as §1"}}, "note": "Where “and” joins values, the source holds several entries; their conditions need not be identical. Identical values can stand only once. Like-named read-outs stand apart in the source and are kept apart here."}
{"molecule": "N#CCOc1ccc(-c2nc(OCC#N)c3ccccc3n2)cc1", "note": "[GL547]", "values": [{"measurement": "time CYP activity is suppressed after wash out", "setting": "CYP1B1 [1]", "result": "> 10", "unit": "h"}, {"measurement": "IC50 at 72 h", "setting": "[2]", "result": "> 10000", "unit": "nM"}, {"measurement": "IC50", "setting": "[3]; Table 1, read-out: hLM IC50", "result": 4000, "unit": "nM"}, {"measurement": "IC50", "setting": "[3]; Table 3, read-out: IC50 pHLM", "result": 3000, "unit": "nM"}, {"measurement": "IC50", "setting": "CYP1B1 [4]; Table 1, read-out: CYP1B1 IC50", "result": 0.024, "unit": "nM"}, {"measurement": "IC50", "setting": "CYP1B1 [4]; Table 3, read-out: IC50 1B1", "result": "< 0.25", "unit": "nM"}, {"measurement": "increase in cell death", "setting": "MCF7 tumor spheroids", "result": 75, "unit": "%"}, {"measurement": "activity of CYP1A1 over 24 h", "setting": "CYP1A1; 1 μM, 24 h, FIG. 2D", "result": "no loss in activity"}, {"measurement": "IC50", "setting": "CYP1A1; Table 1, read-out: CYP1A1 IC50", "result": 1400, "unit": "nM"}, {"measurement": "IC50", "setting": "CYP1A1; Table 3, read-out: IC50 1A1", "result": "3730 nM and 2690 nM"}, {"measurement": "effect of binding on CYP1B1 protein", "setting": "CYP1B1 [5]", "result": "causes degradation of CYP1B1"}]}
